Tests used:
[1] = system: neutrophils from CB2R-/- mice; assay: Transwell neutrophil migration assay towards CXCL2, CB2R-/- neutrophils; format: cell-based, mouse; settings: 10 nM CXCL2
Experimental: As described previously, mouse neutrophils were isolated from the bone marrow of mice. Mice were euthanized, femur and tibia were dissected and flushed with ice-cold 1× Hanks balanced salt solution (HBSS; supplemented with […], pH7.5, and 0.5 mM EDTA; Invitrogen) through a sterile filter (70 μm). The suspension was centrifuged at 300× g for 12 min at 4 °C. EasySep™ neutrophil enrichment kit ([…] Technologies Inc., Vancouver, BC, Canada) was used to isolate neutrophils according to the manufacturer’s instructions. The isolated neutrophils were then washed once and the pelleted cells were suspended in RPMI (Invitrogen) containing 1% heat-inactivated fetal bovine serum (FBS, Invitrogen) and used immediately for neutrophil migration experiments or processed for adoptive transfer. The murine neutrophil isolation protocol routinely yields cell suspensions that are >95% pure and viable, as determined by cresyl violet and trypan blue exclusion, respectively.
Neutrophil migration assays were performed using a Transwell migration assay. Isolated neutrophils (1 × 10^5 cells/100 μL) from WT or CB2R^-/- mice were incubated with vehicle (0.01% DMSO), or various concentrations of RO8671304 or RO6851228 at 37 °C, 5% CO2 for 30 min. […] The number of migrated neutrophils was then determined using ImageJ. […]

[2] = Plasma protein binding (equilibrium dialysis), human plasma; format: in vitro ADME; settings: pH 7.4, read-out: Plasma Protein Binding: FREE Fraction human
Experimental: Pooled and frozen plasma from selected species were obtained from commercial suppliers […]
(human […] and mouse […]3-C57; BioreclamationIV, NY, USA). Teflon […]
equilibrium dialysis plates (96-well, 150 μL, half-cell capacity) and cellulose membranes (12–14 kDa molecular weight cut-off) were purchased from HT-Dialysis (Gales Ferry, Connecticut). Both biological matrix and phosphate buffer pH were adjusted to 7.4 on the day of the experiment. The reference substance was diazepam.
The determination of unbound compound was performed using a 96-well format equilibrium dialysis device with a molecular weight cut-off membrane of 12 to 14 kDa. […]
At equilibrium, the unbound drug concentration in the biological matrix compartment of the equilibrium dialysis apparatus is the same as the concentration of the compound in the buffer compartment. Thus, the percent unbound fraction was be calculated by determining the compound concentrations in the buffer and matrix compartments after dialysis as follows: % fraction unbound = 100 × buffer concentration after dialysis/matrix concentration after dialysis. […]
P-glycoprotein (permeability-glycoprotein (P-gp), also known as multidrug resistance protein 1) is the most studied and best characterized drug transporter. […] The effect of P-gp was measured by expressing the efflux ratio of the unidirectional A > B and B > A Papp values. […]

SMILES: CC(C)(C)c1nc(N2CC[C@H](O)C2)c2nnn(Cc3nnnn3C3CC3)c2n1 [RO6871304, (3S)-1-{5-tert-butyl-3-[(1-cyclopropyl-1H-tetrazol-5-yl)methyl]-3H-[1,2, 3]triazolo[4,5-d]pyrimidin-7-yl}pyrrolidin-3-ol]
- CXCL2-induced migration of CB2R-/- neutrophils [1]: did not inhibit migration
- fraction unbound at 5 h, 1000 nM [2]: 0.13

Source: publication PMC6767236, “Selective Cannabinoid 2 Receptor Agonists as Potential Therapeutic Drugs for the Treatment of Endotoxin-Induced Uveitis” (Molecules, 2019)
